Measured values: PMC10810651, “Discovery of novel and potent CDK8 inhibitors for the treatment of acute myeloid leukaemia” (Journal of Enzyme Inhibition and Medicinal Chemistry, 2024)
Like-named read-outs stand apart in the source and are kept apart here.

Tests used:
CDK2 = CDK2 (Homo sapiens, UniProt P24941); assay: CDKs selectivity, CDK2; type: biochemical
Text: CDK7 and CDK9 with the same transcription function and CDK2 and CDK6 were selected to evaluate the selectivity of compound 12.

CDK8 = CDK8 (Homo sapiens, UniProt P49336); assay: CDK8 enzyme activity assay (ADP-Glo Kinase Assay); type: biochemical; details: means ± SD
Sequence of CDK8 (P49336 whole entry): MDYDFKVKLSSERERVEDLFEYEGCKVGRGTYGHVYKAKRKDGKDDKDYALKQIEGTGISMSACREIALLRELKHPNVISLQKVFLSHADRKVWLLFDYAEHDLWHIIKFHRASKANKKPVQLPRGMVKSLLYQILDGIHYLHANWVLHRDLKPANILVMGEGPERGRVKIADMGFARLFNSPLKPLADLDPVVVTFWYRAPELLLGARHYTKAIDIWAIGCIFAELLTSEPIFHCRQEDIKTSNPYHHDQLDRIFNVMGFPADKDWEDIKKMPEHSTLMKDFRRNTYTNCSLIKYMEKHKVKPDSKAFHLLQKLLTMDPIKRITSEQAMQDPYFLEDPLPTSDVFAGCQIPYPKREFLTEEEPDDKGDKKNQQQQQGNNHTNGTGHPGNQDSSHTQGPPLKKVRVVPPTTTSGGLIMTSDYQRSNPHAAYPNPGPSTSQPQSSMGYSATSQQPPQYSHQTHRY
Sequence of CDK8 (P24863 whole entry partner): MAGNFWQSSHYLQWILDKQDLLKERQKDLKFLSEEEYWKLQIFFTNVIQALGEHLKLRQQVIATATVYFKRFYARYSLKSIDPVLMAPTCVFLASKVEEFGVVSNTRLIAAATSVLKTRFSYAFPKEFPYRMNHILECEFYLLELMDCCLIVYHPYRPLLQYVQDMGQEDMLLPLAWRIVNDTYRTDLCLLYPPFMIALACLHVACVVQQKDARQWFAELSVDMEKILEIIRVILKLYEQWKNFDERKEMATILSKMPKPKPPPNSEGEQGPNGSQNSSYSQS
Experimental: Some of them with high inhibition rates were further measured for their IC50 values. Compound SEL-120 34 A was selected as a positive control. [table] [table] page 14: CO2 atmosphere incubator for 24 h. Then, medium with compound at the concentrations of 100, 20, 4, 0.8, 0.016 μM was added into each well for another 48 h and incubated with CCK-8 (10 μL) for 2 h at 37 °C. The absorbance value at 450 nm was measured by the microplate reader (PerkinElmer Envision). 1.4 Kinase Assay The kinase inhibition was detected by ADP-Glo™ Kinase Assay (Promega) using a black 384-well plate. The active CDK8 kinase was diluted in mixture (5 ng enzyme, 0.5 μg substrate, 50 μM DTT, 1 μL reaction buffer and added ddH2O to 3 μL each well) and the final ATP concentrations of was 50 μM. After incubation at room temperature, ADP-Glo™ solution and kinase detection reagent was added. The data was collected by the microplate reader. 1.5 Cellular thermal shift assay HCT-116 cells were cultured in cell culture dishes and treated with 5 μM compound 12 for 4 h. HCT-116 cells were collected, washed by PBS and cell suspensions were divided into 12 PCR tubes equally. Then,11 tubes were heated at 37, […] After that, cells were broken by ultr asonic treatment and centrifuged at 12000 rpm for 20 min. The supernatant was analyzed by western blot. 1.6 Biotin-pulldown assay After co-treated with 2 μM biotinylated compound and compound 12 for 12 h, HCT-116 cells were lysed with NP-40 containing PMSF and centrifuged at 14000 r for 30 min at 4 °C. Then, 40 μL supernatant was used as the input by adding 10 μL 5×SDS loading buffer, and the remains were mixed with Streptavidin Agarose (Novex, Carlsbad, CA, USA). After 6 h incuba tion at 4 °C, the beads were washed three times using lysis buffer and resuspended in 2× SDS loading buffer. HEK -293T cells overexpressed flag -tagged CDK8 were treated using above method. The samples were analyzed by western blot.

[1] = In vivo pharmacokinetic evaluation
Experimental: Pharmacokinetic data is an important parameter for small molecule drugs. Here, the pharmacokinetic data of compound 12 was performed. […] Based on the above data analysis, we believed it is possible that compound 12 could be used as an oral medication (Figure 7).

SW480 = assay: Antiproliferative CCK-8 assay, SW480; type: cell-based; details: Homo sapiens; SW480, CCK-8 assay, means ± SD; read-out: GC50 (the source's name)
Text: (§1) Compounds12, 13 and 30 were selected for further cell activity assessments based on the enzymatic activity assessment results. molm-13 and MV4-11(acute myeloid lineage leukaemia cells), MGC-803 (gastric cancer cell), MDA-MB-231(breast cancer cell), A375 (melanoma cell), A549 (lung cancer cell), HCT-116, SW-480 and HT-29 (colorectal cancer cells) were selected to evaluate antitumor activity in vitro, GES-1 (gastric mucosal epithelial cell) was selected to evaluate toxicity in vitro.
(§2) CO2 atmosphere incubator for 24 h. Then, medium with compound at the concentrations of 100, 20, 4, 0.8, 0.016 μM was added into each well for another 48 h and incubated with CCK-8 (10 μL) for 2 h at 37 °C. The absorbance value at 450 nm was measured by the microplate reader (PerkinElmer Envision). […]

GES-1 = assay: In vitro toxicity CCK-8 assay, GES-1; type: cell-based; details: Homo sapiens, GES1, GES-1 gastric mucosal epithelial cell, read-out: GC50 (the source's name)
Text: as §1, §2

CYP 1A2 = CYP 1A2 (Homo sapiens, UniProt P05177); assay: CYP inhibition activity, 1A2; type: in vitro ADME
Sequence of CYP 1A2 (P05177 whole entry): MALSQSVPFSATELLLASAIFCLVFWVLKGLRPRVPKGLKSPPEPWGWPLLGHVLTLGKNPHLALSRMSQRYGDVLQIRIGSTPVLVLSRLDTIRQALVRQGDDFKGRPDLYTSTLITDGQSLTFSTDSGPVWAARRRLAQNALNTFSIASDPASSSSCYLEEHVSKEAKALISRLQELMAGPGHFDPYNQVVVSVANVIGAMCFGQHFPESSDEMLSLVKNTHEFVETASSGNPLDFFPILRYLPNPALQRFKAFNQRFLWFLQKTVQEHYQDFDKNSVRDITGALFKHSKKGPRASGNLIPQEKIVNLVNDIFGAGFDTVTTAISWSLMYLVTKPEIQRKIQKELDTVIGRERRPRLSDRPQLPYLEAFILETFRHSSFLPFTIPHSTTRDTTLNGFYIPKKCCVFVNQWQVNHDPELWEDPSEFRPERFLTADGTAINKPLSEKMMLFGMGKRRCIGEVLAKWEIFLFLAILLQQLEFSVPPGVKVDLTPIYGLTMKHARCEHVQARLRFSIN
Text: Table 7. CYP inhibition activity. | column: IC50 (μM) / 1A2

STAT1 S727 = assay: Phosphorylation of STAT1 S727, western blot; type: cell-based; details: HCT-116 cells, 1, 2, 4 μM, 12 h
Experimental: It has been reported that CDK8 could specifically target the transactivation domain of STAT1 at Ser727 phosphorylation. HCT-116 cells were treated with compounds 12 with different concentrations of 1 μM, 2 μM, 4 μM separately to verify compound 12 could inhibit the phosphorylation of STAT1 Ser727. […] It’s reported that CDK8 was also involved in S726 phosphorylation of STAT5 in AML cells.
Figure 6. Compound 12 inhibited phosphorylation of STAT1 S727 and STAT5 S726. (A) Compound 12 suppressed the phosphorylation of STAT1 S727 in a dose-dependent manner. HCT-116 cells were treated with compound for 12 h. (B) Compound 12 suppressed the phosphorylation of STAT5 S726 in a dose dependent manner. HL-60 cells were treated with or without compound for 12 h. The samples were analysed by Western blot.
1.7 The effect of compound on phosphorylation of STAT1 S727
HCT-116 cells were seeded into 60 mm cultural dishes at a density of 1.5×10^6 cells per dishes. […] Levels of total STAT1, phosphorylated STAT1 S727, Y701 and GAPDH were analyzed. […]
Levels of total STAT5, phosphorylated STAT5 S726 and GAPDH were analyzed.
The results were expressed as the means ± SEMs (SPSS software), and the differences between groups were evaluated using Turkey’s method (GraphPad Software). […]

Caco-2 = Caco-2 permeability determination; type: in vitro ADME; details: Caco-2
[2] = blood, iv, 2 mg/kg, 2 mg/kg (iv)
[3] = blood, po, 10 mg/kg, 10 mg/kg (po)

NC(=O)c1cccc(-c2cnc3[nH]cc(-c4ccoc4)c3c2)c1 [Compound 12, 3-(3-(furan-3-yl)-1H-pyrrolo[2,3-b]pyridin-5-yl)benzamide]
IC50 (CDK2): > 1 µM | inhibition at 0.2 µM (CDK8; CDK8, 200 nM, two experiments, read-out: Inhibition rate @ 200 nM (%)): 80.9 ± 3.5% | IC50 (CDK8; three experiments): 0.0392 ± 0.0063 µM | AUC 0-∞ ([1]; 2 mg/kg (iv)): 829.75 ng·h/mL | Cmax ([1]; 2 mg/kg (iv)): 647.79 ng/mL | AUC 0-∞ ([1]; 10 mg/kg (po)): 1611.67 ng·h/mL | CL ([1]; 10 mg/kg (po)): 104 mL/min/kg | Cmax ([1]; 10 mg/kg (po)): 821.82 ng/mL | AUC(0-inf) [1, 2]: 830 ng·h/mL | half-life [1, 2]: ~1.12 h | Cmax ([1]; blood, iv, 2 mg/kg, 2 mg/kg (iv), read-out: Cmax): 648 ng/mL | AUC(0-inf) [1, 3]: 1610 ng·h/mL | half-life [1, 3]: 0.95 h | Cmax ([1]; blood, po, 10 mg/kg, 10 mg/kg (po), read-out: Cmax): 822 ng/mL | MRT ([1]; blood, 2 mg/kg (iv)): 1.64 h | Tmax ([1]; blood, 2 mg/kg (iv)): 0.33 h | clearance ([1]; blood, 2 mg/kg (iv)): 40.8 mL/min/kg | MRT ([1]; blood, 10 mg/kg (po)): 2.24 h | Tmax ([1]; blood, 10 mg/kg (po)): 0.88 h | bioavailability ([1]; blood, 10 mg/kg (po) vs 2 mg/kg (iv)): 38.8% | IC50 (SW480): 6.05 ± 2.26 µM | IC50 (GES-1): 25.7 ± 4.97 µM | IC50 (CYP 1A2): > 50 µM | Phosphorylation of STAT1 S727 (STAT1 S727): significantly inhibited in a dose-dependent manner | Permeability (in words) (Caco-2): high permeability
